Article PMC6650409, “Modeling the binding of diverse ligands within the Ah receptor ligand binding domain” (Scientific Reports, 2019)
Residue numbers refer to the chain shown, from its start.

How the values were obtained:
M342A mutant AhR = molecular target: T1, M342A mutant AhR (Mus musculus, UniProt P30561, M342A); experiment: [3H]TCDD competitive ligand binding, M342A mutant AhR; details: for change of relative binding affinity versus wild-type AhR: M342A substitution, in words; for IC50: Table S6, AhR mutant M342A
T1 construct: made in house; host or cells: in vitro, Promega TNT Quick rabbit reticulocyte lysate
T1 sequence (P30561 10-848 M342A): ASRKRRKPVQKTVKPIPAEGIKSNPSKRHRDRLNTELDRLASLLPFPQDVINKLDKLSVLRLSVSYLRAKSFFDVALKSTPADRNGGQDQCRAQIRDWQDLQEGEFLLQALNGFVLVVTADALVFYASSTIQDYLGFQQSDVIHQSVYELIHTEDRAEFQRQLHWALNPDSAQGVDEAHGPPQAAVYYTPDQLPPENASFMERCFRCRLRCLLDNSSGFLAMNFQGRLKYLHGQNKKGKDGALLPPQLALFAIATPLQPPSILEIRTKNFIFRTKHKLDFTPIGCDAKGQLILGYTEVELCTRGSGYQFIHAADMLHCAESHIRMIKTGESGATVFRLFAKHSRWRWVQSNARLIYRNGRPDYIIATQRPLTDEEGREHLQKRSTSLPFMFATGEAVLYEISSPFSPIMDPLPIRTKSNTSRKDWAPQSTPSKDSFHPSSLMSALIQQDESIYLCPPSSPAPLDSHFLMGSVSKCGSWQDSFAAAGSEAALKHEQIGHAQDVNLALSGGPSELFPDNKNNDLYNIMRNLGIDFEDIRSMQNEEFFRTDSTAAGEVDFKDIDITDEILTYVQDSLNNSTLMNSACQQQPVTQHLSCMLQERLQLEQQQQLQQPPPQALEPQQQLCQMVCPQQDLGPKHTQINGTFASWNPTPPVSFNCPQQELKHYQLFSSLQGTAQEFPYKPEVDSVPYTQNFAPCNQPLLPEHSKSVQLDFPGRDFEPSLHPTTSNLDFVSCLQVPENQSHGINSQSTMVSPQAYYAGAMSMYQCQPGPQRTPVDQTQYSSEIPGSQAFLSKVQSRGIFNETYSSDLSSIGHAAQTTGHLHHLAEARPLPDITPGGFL
Protocol: The mouse AhR (mAhR) and ARNT (mARNT) expression plasmids, mβAhR/pcDNA3 and mβArnt/pcDNA3, have been previously described. Point mutations of mβAhR/pcDNA3 were carried out using the QuikChange Lightning Mutagenesis Kit (Agilent Technologies) and all constructs were verified by sequencing.
[^3H]TCDD specific binding to wild-type or mutant mAhRs synthesized in vitro using the Promega TNT Quick coupled transcription/translation rabbit reticulocyte lysate kit (Madison, WI) was carried out as previously described. [^3H]TCDD specific binding was determined by subtracting the amount of [^3H]TCDD bound to unprogrammed lysate (nonspecific binding) from the total amount of [^3H]TCDD binding to lysate containing in vitro expressed AhR. The amount of [^3H]TCDD specific binding remaining in the presence of the indicated competitor chemical was expressed as a percent of the total [^3H]TCDD specific binding. The relative binding affinity (IC50) of each chemical was determined from concentration-dependent competitive inhibition curves obtained using [^3H]TCDD and increasing concentrations of each test chemical and the mean IC50 value was determined using three-parameter non-linear regression.

L302A mutant AhR = molecular target: T2, L302A mutant AhR (Mus musculus, UniProt P30561, L302A); experiment: AhR DNA binding (gel retardation) assay, L302A mutant AhR; format: biochemical; details: L302A mutation; single maximal ligand concentration; in words
T2 construct: made in house; host or cells: in vitro transcription/translation (rabbit reticulocyte lysate)
T2 sequence (P30561 10-848 L302A): T1 sequence (P30561 10-848 M342A) with L293A, A333M
Protocol: Wild-type and mutant mAhRs and mARNT were synthesized in vitro in the presence of unlabeled L-methionine, the resulting mAhRs and mARNT translation mixtures and MEDGK (25 mM MOPS (3-(N-morpholino)propanesulfonic acid; pH 7.5), 1 mM EDTA, 1 mM dithiothreitol, 10% (v/v) glycerol, 150 mM KCl) were mixed in a 1:1:8 (v/v/v) ratio and incubated with DMSO (1% final concentration) or the indicated concentration of TCDD or test chemical for 2 hours at room temperature. An aliquot of each incubation was mixed with [^32P]-labeled double-stranded oligonucleotide containing the mouse AhR DNA binding site DRE3 (a dioxin responsive element from the upstream region of the murine Cyp1a1 gene[71]) and protein-DNA complexes resolved by gel retardation analysis as previously described in detail. Gels were visualized using a FLA9000 Fujifilm Imager and protein-DNA complexes quantitated with Fujifilm MultiGauge software. For potency measurements, reactions were incubated with increasing concentrations of the test chemical and the chemical concentration producing half maximal AhR:ARNT:DRE complex formation (EC50) determined.

SMILES	change of relative binding affinity versus wild-type AhR (M342A mutant AhR)	IC50 (M342A mutant AhR)	ligand-stimulated AhR DNA binding (L302A mutant AhR)
Cc1ccc2cc3c(ccc4ccccc43)c3c2c1CC3 [3MC, 3-methylcholanthrene]	reduced	248 nM	–
O=c1cc(-c2ccccc2)oc2ccc3ccccc3c12 [BNF]	not affected	9.6 nM	–
c1ccc2c(c1)cc1ccc3cccc4ccc2c1c34 [BaP, Benzo(a)pyrene]	–	–	eliminated or greatly reduced
c1ccc2c(c1)ccc1cc3c(ccc4ccccc43)cc12 [DBA, dibenz(a,h)anthracene]	not affected	6.72 nM	–
O=Cc1c2[nH]c3ccccc3c2cc2[nH]c3ccccc3c12 [FICZ, 6-formylindolo[3,2-b]carbazole]	–	0.0207 nM	–
Clc1ccc(-c2cc(Cl)c(Cl)c(Cl)c2)cc1Cl [PCB126, 3,3′4,4′5-pentachlorobiphenyl]	reduced	9.33 nM	–
Clc1cc2c(cc1Cl)Oc1cc(Cl)c(Cl)cc1O2 [TCDD, 2,3,7,8-tetrachlorodibenzo-p-dioxin]	–	–	eliminated or greatly reduced
Clc1cc2oc3cc(Cl)c(Cl)cc3c2cc1Cl [TCDF, 2,3,7,8-tetrachlorodibenzofuran]	–	–	eliminated or greatly reduced
